From paper PMC8296985, “A Covalent Calmodulin Inhibitor as a Tool to Study Cellular Mechanisms of K-Ras-Driven Stemness” (Frontiers in Cell and Developmental Biology, 2021)
Like-named read-outs stand apart in the source and are kept apart here.

Legend:
α-hemoglobin = test system: α-hemoglobin; parameters: method as in earlier work; details: formyl warhead, ref Center for Drug Evaluation and Research, 2017, Metcalf et al.; cited from earlier work
HeLa cells = experiment: Centrosome number / multipolar phenotype in synchronized HeLa cells expressing mCherry-CaM; type: cell-based; details: 2 h; calmidazolium 20 μM, 1 50 μM, with MG132 10 μM
Protocol: To evaluate the effect of compounds on centrosome numbers during mitosis, HeLa cells were seeded in 6-well plates onto sterile coverslips and cotransfected with 0.5 μg of pmCherry-CaM and 1.5 μg pEGFP-Centrin1 plasmids using 4 μl of jetPRIME. Twenty-four hours after the transfection, cells were synchronized with 60 ng/ml of nocodazole for 16 h. After the removal of nocodazole, the cells were treated with the […] MG132 (10 μM) to block the cells in metaphase and either calmidazolium (20 μM), 1 (50 μM), or DMSO (0.5%) for 2 h. Cells were then fixed with 4% paraformaldehyde in PBS for 10 min at ambient temperature. After washing with PBS-Tween 0.05%, DNA was stained with a 1 μg/ml solution of DAPI diluted in PBS for 10 min. Coverslips were mounted on glass slides using Vectashield, and images were captured on a spinning disk confocal microscope. Images were analyzed with the ImageJ software, and the number of transfected mitotic cells with multipolar and normal bipolar phenotypes was counted (between 35 and 70 cells per test condition). The percentage multipolar vs. bipolar cells was computed to generate the plot using the Prism software.

K-RasG12V/CaM = molecular target: T1, K-RasG12V/CaM (Homo sapiens, UniProt P0DP23); experiment: Rluc8-K-RasG12V/GFP2-CaM interaction BRET in HEK293-EBNA cells; type: cell-based; details: calmidazolium 20 μM, prostratin 20 μM, OphA 5 μM
T1 construct: expressed in transfected cells; host or cells: HEK293-EBNA
Protocol: (§1) BRET assays were essentially performed as described by others ([Lavoie et al., 2013]; [Bery et al., 2018]). About 100,00–150,000 HEK293-EBNA ([Meissner et al., 2001]) cells were seeded per well of a 12-well plate in 1 ml of DMEM containing 10% FBS and 2 mM L-glutamine and were grown for 24 h. Next day, Rluc8-tagged donor and GFP2-tagged acceptor constructs were transfected into cells using a jetPRIME transfection reagent (cat. no. 114-75, Polyplus). Each well was transfected with about 1 μg of plasmid DNA using 3 μl of the jetPRIME reagent. For BRET donor saturation titration experiments, the concentration of donor plasmid (25 ng) was kept constant, and the concentration of acceptor plasmid was increased from 0 to 500 ng for RasG12V BRET pairs and 0–1,000 ng for K-Ras/CaM BRET pairs. The empty pcDNA3.1(-) plasmid was used to top-up the total DNA load per transfection. After 24 h of transfection, cells were treated with compounds or vehicle control (DMSO 0.2% v/v in a growth medium) at the specified concentration for 24 h or the stipulated time period in case of the time-course experiments. The cells from one well of a 12-well plate were collected, washed, and re-plated in PBS (cat. no. 14190-094, Gibco, Thermo Fisher Scientific) on flat bottom, white 96-well plates (cat. no. 236108, Nunc, Thermo Fisher Scientific) as four technical replicates containing 90 μl of cell suspension per well. Then fluorescence intensity followed by BRET readings were carried out on a Clariostar (BMG Labtech) plate reader at 25°C. The fluorescence intensity (RFU) of GFP2 was measured with excitation at 405 ± 10 nm and emission 515 ± 10 nm; it is proportional to the acceptor concentration [acceptor]. BRET readings were taken well by well by adding 10 μl of 100 μM coelenterazine 400a (cat. no. C-320, GoldBio), the Rluc8 substrate to each well (final concentration of 10 μM) using the injector present in the plate reader. Luminescence emission intensities were simultaneously recorded at 410 ± 40 nm (RLU, proportional to [donor]) and 515 ± 15 nm (BRET signal).
(§2) The raw BRET ratio was calculated as the BRET signal measured at 515 nm divided by the emission signal measured at 410 nm (RLU). The BRET ratio was obtained by subtracting the raw BRET ratio by a background BRET signal measured for cells expressing only the donor ([Bacart et al., 2008]) as indicated in the formula below:
(§3) For BRET donor saturation titration experiments, the BRET ratio was plotted against the [acceptor]/[donor] ratio. Technical repeat data points were averaged, and data points from all biological repeats were collected into one graph for subsequent fitting. The BRET ratio vs. relative expression data were fitted using a binding saturation equation in the Prism (GraphPad) software to obtain BRETmax and BRET50 using the equation y=BRETmax×x/BRET50+x , where x is the relative expression and y is the BRET ratio. BRETmax represents the maximum saturation BRET signal and depends on the structural parameters (distance, orientation) of the BRET complex. BRET50 corresponds to the ratio of the acceptor construct over the donor construct required to attain 50% of the maximum BRET signal and is a measure of the effective relative affinity between the interacting BRET pair ([Marullo and Bouvier, 2007]).

K-RasG12V = K-RasG12V nanoclustering-BRET assay in HEK293-EBNA cells; type: cell-based; details: 24 h; calmidazolium 20 μM, OphA 2.5 μM, prostratin 10 μM, mevastatin 10 μM, benzazulenones 20 μM
Protocol: as §1, §2, §3
When applying the DSS analysis to nanoclustering-BRET data, we used mevastatin (10 μM) to obtain the asymptote parameter (a) for the maximal inhibition effect, as it prevents the prenylation of Ras proteins, their plasma membrane trafficking, and therefore nanoclustering. Otherwise, normalized BRET ratio data were converted to % inhibition and then subsequently uploaded onto the Breeze site (see text footnote 1).

CaM = molecular target: CaM; parameters: method as in Manoharan et al., 2019; details: ref Manoharan et al., 2019; cited from earlier work
calmodulin (CaM) = calmodulin (CaM) (Bos taurus, UniProt P62157); experiment: Fluorescence polarization assay, displacement of F-PMCA peptide from CaM
Hs 578T = experiment: 3D spheroid (tumorosphere) formation assay, low attachment, serum-free, alamarBlue; type: cell-based; details: Homo sapiens
Protocol: (§4) 3D spheroid formation assays were performed in 96-well low-attachment, suspension culture plates (cat. no. 655185, Cellstar, Greiner Bio-One) under serum-free condition. About 1,000 (MDA-MB-231, NCI-H358, and MIA PaCa-2) or 2,500 (Hs 578T) cells per well were seeded in 50 μl of either an RPMI medium (cat. no. 52400-025, Gibco, Thermo Fisher Scientific) (MDA-MB-231, A375, and NCI-H358) or DMEM (cat. no. 41965-039, Gibco, Thermo Fisher Scientific) (Hs 578T and MIA PaCa-2), containing 0.5% MethoCult (cat. no. SF H4636, Stemcell technologies), 1x B27 (cat. no. 17504044, Gibco, Thermo Fisher Scientific), 25 ng/ml EGF (cat. no. E9644, Sigma-Aldrich), and 25 ng/ml FGF (cat. no. RP-8628, Thermo Fisher Scientific). Cells were cultured for 3 days and then treated with compounds or vehicle control (DMSO 0.1% v/v in growth medium) for another 3 days. The cells were supplemented with a fresh growth medium on the third day together with the drug treatment. For knockdown experiments, cells were seeded in 12-well plates and treated with either 50 nM scrambled siRNA (cat. no. 1022076, QIAGEN) or indicated concentrations of siRNAs. Next day, cells were collected by trypsinization and re-plated into 96-well plates for 3D spheroid suspension culture.
(§5) Spheroid formation efficiency was analyzed by an alamarBlue assay reagent (cat. no. DAL1100, Thermo Fisher Scientific). A 10% final volume of the alamarBlue reagent was added to each well of the plate and incubated for 4 h at 37°C. Then the fluorescence intensity was measured using the FLUOstar OPTIMA plate reader (BMG Labtech, Germany) with an excitation wavelength of 560 ± 5 nm and an emission wavelength of 590 ± 5 nm.
(§6) To quantitatively profile the drug sensitivity with a more robust parameter than the IC50 or EC50 values, the drug sensitivity score (DSS) analysis was employed. DSS values are essentially normalized area under the curve (AUC) measures of dose-response inhibition data ([Yadav et al., 2014]). Drug response data files (in Excel) ready for online analysis were prepared according to the example file obtained from the DSS pipeline website, called Breeze^1 ([Potdar et al., 2020]). Either raw fluorescence intensity measurements or normalized % inhibition data (for BRET assay analysis) were uploaded.
(§7) DSS3 was employed to emphasize drugs that obtain their response area over a relatively wide dose window, as compared to drugs that show increased response only at the higher end of the concentration range. After logistic fitting of the dose-response inhibition data, the area under the curve (AUC) was determined as the exact solution. A 10% minimal activity threshold (t) was set. The maximum (Cmax) and minimum (Cmin) concentrations were used for screening of the inhibitors, with Cmax = x2 and x1 concentration with minimal activity t.

MDA-MB-231 = experiment: as above; type: cell-based; details: for IC50: Homo sapiens
Protocol: as §4, §5, §6, §7

Chemical stability note = type: physicochemical

## CC(C)n1nccc1-c1ncccc1COc1cccc(O)c1C=O [GBT440]
α-hemoglobin
  k2/Ki: 15 × 10^3 M^–1 h^–1

## Clc1ccc(C(c2ccc(Cl)cc2)n2cc[n+](CC(OCc3ccc(Cl)cc3Cl)c3ccc(Cl)cc3Cl)c2)cc1 (stereo not drawn) [calmidazolium]
HeLa cells
  multipolar phenotype (multiple mCherry-CaM-positive centrosomes): increased fraction of multipolar cells
K-RasG12V/CaM
  effect on Rluc8-K-RasG12V/GFP2-CaM BRET signal, single concentration: significantly reduced the BRET signal
K-RasG12V
  K-Ras selective reduction of nanoclustering-BRET (K-Ras vs H-Ras): 1.5 fold
CaM
  Kd: 0.0135 µM

## CC(C)c1ccc2cc(C(F)(F)F)c(=O)c3c(N4CCN(C)CC4)c(C=O)c(c1)c23 [Compound 3]
Calmodulin (CaM)
  Kd: 0.25 µM
  Ki: 11 µM
Calmodulin (CaM); after 24-h incubation, higher affinity than OphA
  affinity for CaM relative to OphA: 15 fold
Calmodulin (CaM); read-out: k2/Ki second-order rate constant
  kinact/KI: 11.7 M⁻¹ s⁻¹
Hs 578T; 72 h, Hs 578T (H-RasG12D) 3D tumorosphere, 3 days treatment, read-out: IC50
  IC50: 25.8 µM
Hs 578T; Hs 578T 3D tumorosphere, log scale, read-out: logIC50 ± SD (converted)
  IC50: 25.1 µM
MDA-MB-231; 72 h, MDA-MB-231 (K-RasG13D) 3D tumorosphere, 3 days treatment, read-out: IC50
  IC50: 35 µM
MDA-MB-231; MDA-MB-231 3D tumorosphere, log scale, read-out: logIC50 ± SD (converted)
  IC50: 34.7 µM
MDA-MB-231; MDA-MB-231 vs Hs 578T 3D spheroid formation, 0.6–40 μM, numbers above bars Fig. 1A,B
  KRAS/HRAS mutant cell line DSS3 ratio: 6.0
Chemical stability note
  chemical stability: chemically not as stable
